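The compound was tested at five concentrations on cells cultured in 96-well plates, with a 48-hour exposure period. At the GI50, growth is halved.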 Activity calls are given as the source filed them. Rule as the data show it: active = GI50 up to about 1.1 µM and inactive = higher.
Columns and labels:
Assay in all cases: growth of human tumour cells (NCI), 48 h
HCC 2998 = test system: HCC 2998
SF-539 = test system: SF-539
OVCAR-4 = test system: OVCAR-4
MDA-N = test system: MDA-N
CCRF-CEM = test system: CCRF-CEM
HOP-62 = test system: HOP-62
KM12 = test system: KM12
A549 = test system: A549
Malme-3M = test system: Malme-3M
SN12C = test system: SN12C
T47D = test system: T47D
SF-295 = test system: SF-295
NCI-H460 = test system: NCI-H460
MCF7 = test system: MCF7
EKVX = test system: EKVX
TK-10 = test system: TK-10
Hs-578T = test system: Hs-578T
M14 = test system: M14
BT-549 = test system: BT-549
SW-620 = test system: SW-620
MDA-MB-231 = test system: MDA-MB-231
OVCAR-3 = test system: OVCAR-3
UACC-62 = test system: UACC-62
NCI-H226 = test system: NCI-H226
UACC-257 = test system: UACC-257
NCI/ADR-RES = test system: NCI/ADR-RES
SK-MEL-28 = test system: SK-MEL-28
U-251 = test system: U-251
MDA-MB-435 = test system: MDA-MB-435
ACHN = test system: ACHN
SF-268 = test system: SF-268
OVCAR-8 = test system: OVCAR-8
IGROV-1 = test system: IGROV-1
SK-OV-3 = test system: SK-OV-3
COLO 205 = test system: COLO 205
HT-29 = test system: HT-29
HCT-116 = test system: HCT-116
NCI-H522 = test system: NCI-H522
K562 = test system: K562
MOLT-4 = test system: MOLT-4
PC-3 = test system: PC-3
LOX IMVI = test system: LOX IMVI
SNB-19 = test system: SNB-19
HCT-15 = test system: HCT-15
786-0 = test system: 786-0
UO-31 = test system: UO-31
SK-MEL-5 = test system: SK-MEL-5
SK-MEL-2 = test system: SK-MEL-2
RPMI-8226 = test system: RPMI-8226
NCI-H23 = test system: NCI-H23
RXF 393 = test system: RXF 393
SNB-75 = test system: SNB-75
DU-145 = test system: DU-145
CAKI-1 = test system: CAKI-1
OVCAR-5 = test system: OVCAR-5
SR = test system: SR

For `CCOC(=O)CC(=O)Nc1cccc2sc3ncccc3c(=O)c12`, the GI50 (HCC 2998) was 25.9 µM (inactive), the GI50 (SF-539) was 41.7 µM (inactive) and the GI50 (OVCAR-4) was 83.2 µM (inactive). The GI50 (MDA-N) was 76.7 µM (inactive), the GI50 (CCRF-CEM) was 10.8 µM (inactive) and the GI50 (HOP-62) was 33 µM (inactive). The GI50 (KM12) was 77.4 µM (inactive), the GI50 (A549) was 18.4 µM (inactive) and the GI50 (Malme-3M) was 54.6 µM (inactive). The GI50 (SN12C) was 51.8 µM (inactive), the GI50 (T47D) was 3.95 µM (inactive) and the GI50 (SF-295) was 43.5 µM (inactive). The GI50 (NCI-H460) was 19.5 µM (inactive), the GI50 (MCF7) was 0.57 µM (active) and the GI50 (EKVX) was 65.8 µM (inactive). For the same molecule, the GI50 (TK-10) was 34.4 µM (inactive), the GI50 (Hs-578T) was 19.1 µM (inactive) and the GI50 (M14) was 87.1 µM (inactive). For the same molecule, the GI50 (BT-549) was 43.4 µM (inactive), the GI50 (SW-620) was > 100 µM (inactive) and the GI50 (MDA-MB-231) was 60.8 µM (inactive). The GI50 (OVCAR-3) was 34.4 µM (inactive), the GI50 (UACC-62) was 31.7 µM (inactive) and the GI50 (NCI-H226) was 27.9 µM (inactive). For the same molecule, the GI50 (UACC-257) was > 100 µM (inactive), the GI50 (NCI/ADR-RES) was 36.8 µM (inactive) and the GI50 (SK-MEL-28) was 47.8 µM (inactive). The GI50 (U-251) was 32.6 µM (inactive), the GI50 (MDA-MB-435) was 44.7 µM (inactive) and the GI50 (ACHN) was 33.3 µM (inactive). The GI50 (SF-268) was 36.2 µM (inactive), the GI50 (OVCAR-8) was 52.4 µM (inactive) and the GI50 (IGROV-1) was > 10 µM (inactive). For the same molecule, the GI50 (SK-OV-3) was 22.4 µM (inactive), the GI50 (COLO 205) was 68.2 µM (inactive) and the GI50 (HT-29) was 38.8 µM (inactive). The GI50 (HCT-116) was 46 µM (inactive), the GI50 (NCI-H522) was 45.4 µM (inactive) and the GI50 (K562) was 20.6 µM (inactive). The GI50 (MOLT-4) was 10 µM (inactive), the GI50 (PC-3) was 5.81 µM (inactive) and the GI50 (LOX IMVI) was 19 µM (inactive). For the same molecule, the GI50 (SNB-19) was 51.3 µM (inactive), the GI50 (HCT-15) was 38.4 µM and the GI50 (786-0) was 35 µM (inactive). For the same molecule, the GI50 (UO-31) was 25.7 µM (inactive), the GI50 (SK-MEL-5) was 5.37 µM (inactive) and the GI50 (SK-MEL-2) was 34.3 µM (inactive). The GI50 (RPMI-8226) was 35.6 µM (inactive), the GI50 (NCI-H23) was 32 µM (inactive) and the GI50 (RXF 393) was 3.09 µM (inactive). For the same molecule, the GI50 (SNB-75) was 12.9 µM (inactive), the GI50 (DU-145) was 84.9 µM (inactive) and the GI50 (CAKI-1) was 27.9 µM (inactive). The GI50 (OVCAR-5) was 20.3 µM (inactive) and the GI50 (SR) was 33.3 µM (inactive).
